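96-well plates; 48 h exposure; 5 concentrations. Endpoints by linear interpolation between flanking doses. Not reached: highest tested concentration assigned. Here, GI50 denotes the concentration required for 50% inhibition of growth. TGI marks complete inhibition of growth.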
What was measured:
Assay in all cases: inhibition of tumour cell growth, NCI panel, 48 h
786-0 renal = tested on: 786-0 renal
A498 renal = tested on: A498 renal
A549 NSCLC = tested on: A549 NSCLC
ACHN renal = tested on: ACHN renal
BT-549 breast = tested on: BT-549 breast
CAKI-1 renal = tested on: CAKI-1 renal
COLO 205 colon = tested on: COLO 205 colon
DU-145 prostate = tested on: DU-145 prostate
EKVX NSCLC = tested on: EKVX NSCLC
HCT-116 colon = tested on: HCT-116 colon
HCT-15 colon = tested on: HCT-15 colon
HL-60(TB) leukemia = tested on: HL-60(TB) leukemia
HOP-62 NSCLC = tested on: HOP-62 NSCLC
HOP-92 NSCLC = tested on: HOP-92 NSCLC
HS 578T breast = tested on: HS 578T breast
HT29 colon = tested on: HT29 colon
IGROV1 ovarian = tested on: IGROV1 ovarian
K-562 leukemia = tested on: K-562 leukemia
KM12 colon = tested on: KM12 colon
LOX IMVI melanoma = tested on: LOX IMVI melanoma
M14 melanoma = tested on: M14 melanoma
MCF7 breast = tested on: MCF7 breast
MDA-MB-231 breast = tested on: MDA-MB-231 breast
MDA-MB-435 = tested on: MDA-MB-435
MOLT-4 leukemia = tested on: MOLT-4 leukemia
NCI-H226 lung = tested on: NCI-H226 lung
NCI-H23 lung = tested on: NCI-H23 lung
NCI-H460 lung = tested on: NCI-H460 lung
NCI-H522 lung = tested on: NCI-H522 lung
NCI/ADR-RES ovarian = tested on: NCI/ADR-RES ovarian
OVCAR-3 ovarian = tested on: OVCAR-3 ovarian
OVCAR-4 ovarian = tested on: OVCAR-4 ovarian
OVCAR-5 ovarian = tested on: OVCAR-5 ovarian
OVCAR-8 ovarian = tested on: OVCAR-8 ovarian
PC-3 prostate = tested on: PC-3 prostate
RPMI-8226 leukemia = tested on: RPMI-8226 leukemia
RXF 393 renal = tested on: RXF 393 renal
SF-268 CNS = tested on: SF-268 CNS
SF-295 CNS = tested on: SF-295 CNS
SF-539 CNS = tested on: SF-539 CNS
SK-MEL-2 melanoma = tested on: SK-MEL-2 melanoma
SK-MEL-28 melanoma = tested on: SK-MEL-28 melanoma
SK-MEL-5 melanoma = tested on: SK-MEL-5 melanoma
SK-OV-3 ovarian = tested on: SK-OV-3 ovarian
SN12C renal = tested on: SN12C renal
SNB-19 CNS = tested on: SNB-19 CNS
SNB-75 CNS = tested on: SNB-75 CNS
SW-620 colon = tested on: SW-620 colon
T-47D breast = tested on: T-47D breast
U251 CNS = tested on: U251 CNS
UACC-257 melanoma = tested on: UACC-257 melanoma
UACC-62 melanoma = tested on: UACC-62 melanoma
UO-31 renal = tested on: UO-31 renal

Question: What does the source list for O=C(Nc1ccc(Cl)cc1)c1ccc(NC2=C(Cl)C(=O)N(Cc3ccccc3)C2=O)cc1?
Answer: GI50 (786-0 renal): 10.8 µM; TGI (786-0 renal): 24.4 µM; GI50 (A498 renal): 17.7 µM; TGI (A498 renal): 47.8 µM; GI50 (A549 NSCLC): 16.3 µM; TGI (A549 NSCLC): 39.9 µM; GI50 (ACHN renal): 15.7 µM; TGI (ACHN renal): 35.3 µM; GI50 (BT-549 breast): 15.3 µM; TGI (BT-549 breast): 34.2 µM; GI50 (CAKI-1 renal): 15.3 µM; TGI (CAKI-1 renal): 31.5 µM; GI50 (COLO 205 colon): 30.3 µM; TGI (COLO 205 colon): > 100 µM; GI50 (DU-145 prostate): 14.4 µM; TGI (DU-145 prostate): 38.6 µM; GI50 (EKVX NSCLC): 26.7 µM; TGI (EKVX NSCLC): 89.5 µM; GI50 (HCT-116 colon): 2.41 µM; TGI (HCT-116 colon): 7.59 µM; GI50 (HCT-15 colon): 24.4 µM; TGI (HCT-15 colon): > 100 µM; GI50 (HL-60(TB) leukemia): 6.23 µM; TGI (HL-60(TB) leukemia): > 100 µM; GI50 (HOP-62 NSCLC): 14.1 µM; TGI (HOP-62 NSCLC): 27.7 µM; GI50 (HOP-92 NSCLC): 9.19 µM; TGI (HOP-92 NSCLC): 25.1 µM; GI50 (HS 578T breast): 18.4 µM; TGI (HS 578T breast): 49.8 µM; GI50 (HT29 colon): 20 µM; TGI (HT29 colon): > 100 µM; GI50 (IGROV1 ovarian): 0.98 µM; TGI (IGROV1 ovarian): 6.22 µM; GI50 (K-562 leukemia): 3.29 µM; TGI (K-562 leukemia): 48.9 µM; GI50 (KM12 colon): 21.1 µM; TGI (KM12 colon): 56.7 µM; GI50 (LOX IMVI melanoma): 12.7 µM; TGI (LOX IMVI melanoma): 32.7 µM; GI50 (M14 melanoma): 15.2 µM; TGI (M14 melanoma): 35.8 µM; GI50 (MCF7 breast): 15.3 µM; TGI (MCF7 breast): 33.8 µM; GI50 (MDA-MB-231 breast): 13.9 µM; TGI (MDA-MB-231 breast): 38.1 µM; GI50 (MDA-MB-435): 12.7 µM; TGI (MDA-MB-435): 33.1 µM; GI50 (MOLT-4 leukemia): 3.26 µM; TGI (MOLT-4 leukemia): 44.8 µM; GI50 (NCI-H226 lung): 11.2 µM; TGI (NCI-H226 lung): 28.4 µM; GI50 (NCI-H23 lung): 12.9 µM; TGI (NCI-H23 lung): 28.6 µM; GI50 (NCI-H460 lung): 25.1 µM; TGI (NCI-H460 lung): > 100 µM; GI50 (NCI-H522 lung): 8.55 µM; TGI (NCI-H522 lung): 30.7 µM; GI50 (NCI/ADR-RES ovarian): 4.14 µM; TGI (NCI/ADR-RES ovarian): 14.8 µM; GI50 (OVCAR-3 ovarian): 12.6 µM; TGI (OVCAR-3 ovarian): 28 µM; GI50 (OVCAR-4 ovarian): 18.3 µM; TGI (OVCAR-4 ovarian): 43.4 µM; GI50 (OVCAR-5 ovarian): 14.1 µM; TGI (OVCAR-5 ovarian): 28.1 µM; GI50 (OVCAR-8 ovarian): 7.92 µM; TGI (OVCAR-8 ovarian): 28.1 µM; GI50 (PC-3 prostate): 11.4 µM; TGI (PC-3 prostate): 27.1 µM; GI50 (RPMI-8226 leukemia): 2.7 µM; TGI (RPMI-8226 leukemia): 12.4 µM; GI50 (RXF 393 renal): 18.3 µM; TGI (RXF 393 renal): 44.9 µM; GI50 (SF-268 CNS): 17.8 µM; TGI (SF-268 CNS): 50.2 µM; GI50 (SF-295 CNS): 5.8 µM; TGI (SF-295 CNS): 19.9 µM; GI50 (SF-539 CNS): 17.5 µM; TGI (SF-539 CNS): 41.3 µM; GI50 (SK-MEL-2 melanoma): 14.2 µM; TGI (SK-MEL-2 melanoma): 40.4 µM; GI50 (SK-MEL-28 melanoma): 17.4 µM; TGI (SK-MEL-28 melanoma): 37.9 µM; GI50 (SK-MEL-5 melanoma): 31.1 µM; TGI (SK-MEL-5 melanoma): 99.3 µM; GI50 (SK-OV-3 ovarian): 32.9 µM; TGI (SK-OV-3 ovarian): > 100 µM; GI50 (SN12C renal): 7.67 µM; TGI (SN12C renal): 25.1 µM; GI50 (SNB-19 CNS): 23.2 µM; TGI (SNB-19 CNS): 76.6 µM; GI50 (SNB-75 CNS): 20.1 µM; TGI (SNB-75 CNS): 52.5 µM; GI50 (SW-620 colon): 6.36 µM; TGI (SW-620 colon): > 100 µM; GI50 (T-47D breast): 20.6 µM; TGI (T-47D breast): 67.3 µM; GI50 (U251 CNS): 8.07 µM; TGI (U251 CNS): 20.4 µM; GI50 (UACC-257 melanoma): 22.2 µM; TGI (UACC-257 melanoma): 63.5 µM; GI50 (UACC-62 melanoma): 17.9 µM; TGI (UACC-62 melanoma): 44.3 µM; GI50 (UO-31 renal): 14.7 µM; TGI (UO-31 renal): 29.8 µM

From PubChem BioAssay (NCI)
